Here are results for twelve compounds from patent US20190315711A1 (eXIthera Pharmaceuticals, Inc., priority 2016, published 2019).

Series [1] deals with T1, Thrombin (Homo sapiens, UniProt P00734).
T1 construct: Thrombin; 0.2 μM in 50% glycerol (7.34 μg/mL)
Nature of the series: Dose response assay for protease inhibitors: thrombin. It is filed as biochemical. To be noted: ratio versus Factor XIa.

For series [2], the target named is T2, Trypsin (Bos taurus, UniProt P00760).
T2 construct: gene PRSS1
T2 sequence (P00760 24-246): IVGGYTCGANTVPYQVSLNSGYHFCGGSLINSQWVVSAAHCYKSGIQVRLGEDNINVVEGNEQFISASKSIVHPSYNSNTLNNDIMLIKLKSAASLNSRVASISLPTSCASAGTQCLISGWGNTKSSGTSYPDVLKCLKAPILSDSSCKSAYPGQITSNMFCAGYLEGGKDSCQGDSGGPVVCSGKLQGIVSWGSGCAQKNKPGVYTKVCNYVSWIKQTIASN
As to the kind of experiment: Dose response assay for protease inhibitors: trypsin. It counts as biochemical. To be noted: ratio versus Factor XIa.

A short description of series [3]: Caco-2 cell permeability assay (A-B and B-A). It counts as in vitro ADME. The settings on record: human; for Papp A→B at 60 min, 10 μM: A-B direction; for Papp B→A at 40 min, 10 μM: B-A direction. In outline: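 Caco-2 monolayers were used 21-25 days post-seeding, with compound at 10 μM (1% DMSO) in HBSS-MES pH 6.5 or HBSS-HEPES pH 7.4 on the donor side. Incubation was at 37° C with shaking for 60 min (A−B) or 40 min (B−A). Donor and receiver samples were quantified by HPLC-MS/MS, and Papp and recovery were calculated.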
In general terms: Passage across Caco-2 layers is used to estimate intestinal permeability.

Series [4] addresses human Factor XIa (Homo sapiens, UniProt P03951). Nature of the series: Factor XIa enzyme inhibition assay (dose response, fluorogenic AMC substrate). It is filed as biochemical. Details: Enzyme: Factor XIa. The settings on record: purified enzyme; substrate 50 μM, enzyme 0.25 nM; read-out: hFXIa IC50. In outline:
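Fluorogenic assay in 20 mM Hepes pH 7.4, 150 mM NaCl, 0.02% Tween 20 with 0.25 nM enzyme and 50 μM Glp-Pro-Arg-AMC (final). Fluorescence read every minute for 30 min at 30 °C after serial two-fold compound dilution; IC50 from four-parameter Hill fit of dose-response curves.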

Chain of human Factor XIa (P03951 388-625 limits assumed): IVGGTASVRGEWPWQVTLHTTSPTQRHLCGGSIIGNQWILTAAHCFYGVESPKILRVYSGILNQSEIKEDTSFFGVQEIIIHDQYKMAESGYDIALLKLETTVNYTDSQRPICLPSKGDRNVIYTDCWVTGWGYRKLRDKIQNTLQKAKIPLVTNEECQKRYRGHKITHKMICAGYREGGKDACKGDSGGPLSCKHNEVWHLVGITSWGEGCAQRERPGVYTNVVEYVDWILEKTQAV
Chain of human Factor XIa (P03951 19-387 partner limits assumed): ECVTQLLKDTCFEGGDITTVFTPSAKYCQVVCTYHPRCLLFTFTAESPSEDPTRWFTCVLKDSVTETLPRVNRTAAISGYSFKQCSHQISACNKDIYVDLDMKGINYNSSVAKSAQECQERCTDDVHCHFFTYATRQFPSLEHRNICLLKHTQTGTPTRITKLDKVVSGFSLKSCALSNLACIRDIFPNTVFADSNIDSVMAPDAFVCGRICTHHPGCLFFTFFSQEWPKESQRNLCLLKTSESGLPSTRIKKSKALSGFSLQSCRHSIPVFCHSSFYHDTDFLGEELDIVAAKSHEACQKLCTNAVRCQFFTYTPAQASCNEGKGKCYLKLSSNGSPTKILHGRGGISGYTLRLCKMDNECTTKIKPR

For the compound `CC[C@@H](NC(=O)N1C(=O)[C@H](Cc2ccnc(N)c2)[C@H]1C(=O)N(C)c1ccccc1)c1cccnc1` [Compound 44], the “Ratio: Thrombin/FXIa” value in series [1] is reported as “G (“G” indicates 1-100)”. The “Ratio: Trypsin/FXIa” value in series [2] was “G (“G” indicates 1-100)”. Besides, in series [3], the apical-to-basolateral permeability (Papp A→B) – broadly, how fast a substance crosses the layer from the apical side – at 60 min, 10 μM is at most 10 ×10⁻⁶ cm/s and the apparent permeability from basolateral to apical (Papp B→A) (in general, the apparent permeability from the basolateral to the apical side of a cell layer) at 40 min, 10 μM fell in the range of 31 to 50 ×10⁻⁶ cm/s. For the same compound, in series [4], the IC50 – broadly, the concentration that inhibits the measured activity by half – was under 10 nM.
As to `CC[C@@H](NC(=O)N1C(=O)[C@H](Cc2cc(C)nc(N)c2)[C@H]1C(=O)N(C)c1ccccc1)c1cccc(Cl)c1` [Compound 120], the “Ratio: Thrombin/FXIa” value in series [1] is listed as “H (“H” indicates 101-1000)”. Moreover, the “Ratio: Trypsin/FXIa” value in series [2] was “G (“G” indicates 1-100)”. In addition, in series [3], the Papp A→B at 60 min, 10 μM lay within 11 to 30 ×10⁻⁶ cm/s and the apparent permeability from basolateral to apical (Papp B→A) at 40 min, 10 μM is at most 10 ×10⁻⁶ cm/s. For the same compound, the IC50 in series [4] was under 10 nM.
The matching figures for `C[C@@H](NC(=O)N1C(=O)[C@H](Cc2ccnc(N)c2)[C@H]1C(=O)N(C)c1ccccc1)C1CCCCC1` [Compound 49]: “H (“H” indicates 101-1000)”, “G (“G” indicates 1-100)”, over 50 ×10⁻⁶ cm/s, 11 to 30 ×10⁻⁶ cm/s and under 10 nM.
The matching figures for `CN(C(=O)[C@@H]1[C@@H](Cc2ccnc(N)c2)C(=O)N1C(=O)N[C@@H](C1CCCCC1)C1CC1)c1ccncc1` [Compound 52]: “H (“H” indicates 101-1000)”, “G (“G” indicates 1-100)”, 11 to 30 ×10⁻⁶ cm/s, 31 to 50 ×10⁻⁶ cm/s and under 10 nM.
The matching figures for `CC[C@@H](NC(=O)N1C(=O)[C@H](Cc2ccnc(NC)c2)[C@H]1C(=O)N(C)c1ncccn1)C1CCCCC1` [Compound 80]: “H (“H” indicates 101-1000)”, “G (“G” indicates 1-100)”, 11 to 30 ×10⁻⁶ cm/s, at most 10 ×10⁻⁶ cm/s and under 10 nM.
On to `CC[C@@H](NC(=O)N1C(=O)[C@H](Cc2ccnc(N)c2)[C@H]1C(=O)N(C)c1ccncc1)C1CCCCC1` [Compound 25], for which the “Ratio: Thrombin/FXIa” value in series [1] is reported as “I (“I” indicates >500)”. Besides, the “Ratio: Trypsin/FXIa” value in series [2] is recorded as “G (“G” indicates 1-100)”. Moreover, in series [3], the Papp A→B at 60 min, 10 μM was at most 10 ×10⁻⁶ cm/s and the basolateral-to-apical permeability (Papp B→A) at 40 min, 10 μM is 31 to 50 ×10⁻⁶ cm/s. Also, the 50% inhibitory concentration (IC50) in series [4] is under 10 nM.
For `CC[C@@H](NC(=O)N1C(=O)[C@H](Cc2ccnc(N)c2)[C@H]1C(=O)N(C)c1ncncn1)c1ccccc1` [Compound 83], the “Ratio: Thrombin/FXIa” value in series [1] is listed as “I (“I” indicates >500)”. Further, the “Ratio: Trypsin/FXIa” value in series [2] was “H (“H” indicates 101-1000)”. In addition, in series [3], the apical-to-basolateral permeability (Papp A→B) at 60 min, 10 μM was at most 10 ×10⁻⁶ cm/s and the basolateral-to-apical permeability (Papp B→A) at 40 min, 10 μM was over 50 ×10⁻⁶ cm/s. In addition, in series [4], the concentration for half-maximal inhibition (IC50) is under 10 nM.
Regarding `CC[C@@H](NC(=O)N1C(=O)[C@H](Cc2ccnc(N)c2)[C@H]1C(=O)N(C)c1ccncc1)c1cccc(C)c1` [Compound 87], the “Ratio: Thrombin/FXIa” value in series [1] was “H (“H” indicates 101-1000)”. The “Ratio: Trypsin/FXIa” value in series [2] was “G (“G” indicates 1-100)”. In series [3], this compound had a Papp A→B at 60 min, 10 μM of at most 10 ×10⁻⁶ cm/s and a basolateral-to-apical permeability (Papp B→A) at 40 min, 10 μM of 31 to 50 ×10⁻⁶ cm/s. For the same compound, the IC50 in series [4] is under 10 nM.
The matching figures for `CC[C@@H](NC(=O)N1C(=O)[C@H](Cc2ccnc(N)c2)[C@H]1C(=O)N(C)c1ncccn1)c1cccnc1` [Compound 61]: “H (“H” indicates 101-1000)”, “G (“G” indicates 1-100)”, at most 10 ×10⁻⁶ cm/s, 11 to 30 ×10⁻⁶ cm/s and under 10 nM.
For `CC[C@@H](NC(=O)N1C(=O)[C@H](Cc2ccnc(NC(=O)OC(C)(C)C)c2)[C@H]1C(=O)N(C)c1ccncc1)c1cccc(Cl)c1` [Compound 127] the same measures were “H (“H” indicates 101-1000)”, “H (“H” indicates 101-1000)”, 11 to 30 ×10⁻⁶ cm/s, at most 10 ×10⁻⁶ cm/s and 10 to 100 nM.
For `CCC[C@@H](NC(=O)N1C(=O)[C@H](Cc2ccnc(N)c2)[C@H]1C(=O)N(C)c1ccccc1)C1CCCCC1` [Compound 50] the same measures were “G (“G” indicates 1-100)”, “G (“G” indicates 1-100)”, 31 to 50 ×10⁻⁶ cm/s, at most 10 ×10⁻⁶ cm/s and under 10 nM.
Consider `CC[C@@H](NC(=O)N1C(=O)[C@H](Cc2ccnc(N)c2)[C@H]1C(=O)N(C)c1ccncc1)c1cccc(C#N)c1` [Compound 99], for which, in series [1], the “Ratio: Thrombin/FXIa” value was “H (“H” indicates 101-1000)”. Besides, the “Ratio: Trypsin/FXIa” value in series [2] is “G (“G” indicates 1-100)”. Also, in series [3], the Papp A→B at 60 min, 10 μM was at most 10 ×10⁻⁶ cm/s and the Papp B→A at 40 min, 10 μM lay within 11 to 30 ×10⁻⁶ cm/s. Also, the IC50 in series [4] was under 10 nM.
